Laboratory results: patent US6335332B1, “Barbituric acid derivatives with antimetastatic and antitumor activity” (Roche Diagnostics GmbH, priority 1997, dated 2002)
pIC50: −log10 of the molar value. Read-outs that look alike come from different tables or passages of the source.

Assays:
[1] = target: T1, MMP8 (human neutrophil collagenase) catalytic domain (Homo sapiens, UniProt P22894); assay: Inhibition of MMP8 catalytic domain, fluorescent DNP-substrate degradation; assay type: biochemical
T1 construct: by means of the catalytic domain of MMP8
Method: Said test provides for the determination via fluorescence of the inhibition of the degradation of a fluorescent substrate (DNP-Pro-Leu-Gly-Leu-Trp-Ala-D-Arg-[…], M1855 Bachem) by means of the catalytic domain of MMP8.
(§1) Reagents: 1) DNP-substrate=DNP-Pro-Leu-Gly-Leu-Trp-Ala-D-Arg-NH2 (M1855 Bachem), M. W. 977,l g/mol, concentration 25 μM in DMSO, 2) measurement buffer=50 mM TRIS/100 mM NaCl/10 mM CaCl2.2H2O, adjusted at pH 7 6 with hydrochloric acid. 3) Enzyme=catalytic domain of MMP8 ([…]), concentration 0.055 mg/ml in TRIS buffer. Substrate and enzyme are maintained at 0° C. with ice bath.
(§2) Total volume=1 ml of solution kept under stirring in a cuvette
(§3) It is measured the fluoresence at 346 nm both of the control solution (without inhibitor) and of the solution containing the inhibitor. The inhibition of the catalytic activity of MMP8 results in the decrease of the DNP-substrate bond's lysis, with related decrease of the fluorescence of the solution.
(§4) The percentage of inhibition is expressed by the following formula:
(§5) % Inhibition=100−(rel. unit/timewith inhibitor/rel. unit/timecontrol×100)
(§6) By repeating the experiment at different concentrations of inhibitor it is possible to determine the IC50 value.

[2] = target: T2, MMP-9 (gelentinase 92 kD) (Homo sapiens, UniProt P14780); assay: Inhibition of MMP-9 catalytic domain (same test as MMP8); assay type: biochemical
T2 construct: MMP-9 IC50; other: catalytic domain
T2 sequence (P14780 with tags, fused parts or gaps DEL217-390 limits assumed): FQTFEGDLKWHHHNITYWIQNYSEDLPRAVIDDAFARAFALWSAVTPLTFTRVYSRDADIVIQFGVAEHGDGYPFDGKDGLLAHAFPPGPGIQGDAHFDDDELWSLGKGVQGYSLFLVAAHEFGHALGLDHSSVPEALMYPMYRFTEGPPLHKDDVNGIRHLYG
Method: The compounds of the present invention have been tested in a pharmacological “in vitro” test of inhibition of MMP8 (human neutrophil collagenase). Said test provides for the determination via fluorescence of the inhibition of the degradation of a fluorescent substrate (DNP-Pro-Leu-Gly-Leu-Trp-Ala-D-Arg-[…], M1855 Bachem) by means of the catalytic domain of MMP8.
as §1, §2, §3, §4, §5, §6
The same test has been performed also on the MMP-9 (gelentinase 92 kD) and the selectivity between the two enzymes has been evaluated. Values of MMP-9/MMP-8 rate well below 1 are expected to give rise to less side toxic effects, since MMP-8 seems more involved in the regulation of vital functions that MMP-9 does.

[3] = tested on: human fibrosarcoma HT1080 cells; assay: Test of chemoinvasion through Type IV collagen coated Transwell chambers; assay type: cell-based; details: HT-1080, concentration 10^-7 M
Method: The compounds of the present invention have also shown activity in a test of chemoinvasion. In the test of chemoinvasion the Costar Transwell chambers for cell culture (diameter: 6.5 mm: pore size: 8 μm) are coated with 100 μl of Type IV collagen (diluted solution 50 μg/ml, then evaporation overnight). With the same procedure the chambers are coated with a second layer of Type IV collagen (100 μl of solution at concentration 50 μg/ml). Before use, the chambers are rinsed twice with sterile water and incubated for about 1 hour at 37° C. in a serum-free medium (DMEM).
The human fibrosarcoma HT1080 cells are harvested by trypsin-EDTA treatment, washed with DMEM-10% FCS and incubated for at least 30 minutes at 37° C. in the same medium. The cells are then washed with serum-free DMEM and resuspended in serum-free DMEM added with 0.1% BSA (fraction V), counted and diluted to obtain a final density of 3×10^5 cell/ml.
Preincubated inserts are aspirated to remove the serum-free medium. […]
Incubated filters are then washed with PBS, the cells are fixed 15 min. in 4% paraformaldehyde, permeabilized in methanol (10 minutes, −20° C.) and stained with May-Grunwald-Giemsa. Cells which adhere to the top of the filters are removed with a cotton swab, filters are detached from the bottom of the chambers and analyzed with microscope to determine the number of cells on the lower side of the filters. […]

T1 sequence (P22894 100-262 limits assumed): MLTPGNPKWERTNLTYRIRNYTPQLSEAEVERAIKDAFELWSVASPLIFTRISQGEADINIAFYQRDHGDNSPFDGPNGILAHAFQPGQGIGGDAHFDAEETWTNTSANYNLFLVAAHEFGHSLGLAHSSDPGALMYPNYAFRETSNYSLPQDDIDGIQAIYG

SMILES | pIC50 [1] | pIC50 [2] | inhibition at 0.1 µM [3] | pIC50 ([2]; catalytic domain, read-out: MMP-9 IC50)
CCCCCCCCC1(CC(=O)N(CCNC(C)=O)Cc2ccccc2)C(=O)NC(=O)NC1=O [Example 6, 5-octyl-5-(carboxymethyl)barbituric acid N′-acetyl-N-benzyl-N-ethylenediamide] | 7.17 | 7.85 | 73% | –
CCCCCCCCC1(CC(=O)OCC)C(=O)NC(=O)NC1=O [Example 1, 5-octyl-5-(ethoxycarbonylmethyl)barbituric acid] | 6.97 | 7.71 | – | –
CNC(=O)[C@H](Cc1ccccc1)NC(=O)[C@H](CC(C)C)[C@H](CSc1ccccc1)C(=O)NO [GI 129471, reference compound] | – | – | 77% | –
CCCCCCCCC1(CC(=O)NCCNC(C)=O)C(=O)NC(=O)NC1=O [Example 5, 5-octyl-5-(carboxymethyl)barbituric acid N′-acetyl N-ethylenediamide] | 7.00 | 7.70 | – | –
CNC(=O)[C@H](Cc1ccccc1)NC(=O)[C@H](CC(C)C)[C@H](CSc1cccs1)C(=O)NO [batimastat, reference compound] | – | – | – | 7.60
